Laboratory results published in BigSolDB 2.1.

CC(=O)N[C@@H](CCC(N)=O)C(=O)O
solubility (mole fraction)
Settings | 283.15 K | 288.15 K | 293.15 K | 298.15 K | 303.15 K | 308.15 K | 313.15 K | 318.15 K | 323.15 K
in 2-butanone | 0.000381 | 0.000395 | 0.000425 | 0.000451 | 0.000479 | 0.000516 | 0.000564 | 0.000606 | 0.000658
in acetone | 0.00016 | 0.000192 | 0.000232 | 0.000275 | 0.000312 | 0.000342 | 0.000389 | 0.000422 | 0.000475
in acetonitrile | 0.000116 | 0.000128 | 0.000139 | 0.000152 | 0.000165 | 0.000179 | 0.000194 | 0.000205 | 0.000217
in ethanol | 0.000347 | 0.000389 | 0.000461 | 0.000543 | 0.000618 | 0.000685 | 0.000768 | 0.000845 | 0.000935
in ethyl acetate | 0.000101 | 0.000136 | 0.000186 | 0.000222 | 0.000271 | 0.000323 | 0.000362 | 0.000402 | 0.000431
in isobutanol | 0.000288 | 0.000309 | 0.000354 | 0.000415 | 0.000464 | 0.000527 | 0.000587 | 0.000635 | 0.000707
in methanol | 0.000974 | 0.00112 | 0.00132 | 0.00149 | 0.00176 | 0.00206 | 0.00243 | 0.00281 | 0.00318
in methyl acetate | 0.000141 | 0.000167 | 0.000201 | 0.000245 | 0.000277 | 0.000315 | 0.000351 | 0.000401 | 0.000445
in n-butanol | 8.9e-05 | 0.000102 | 0.000144 | 0.000193 | 0.000246 | 0.000314 | 0.000372 | 0.000439 | 0.000516
in n-propanol | 0.000371 | 0.000405 | 0.000434 | 0.000471 | 0.000498 | 0.00053 | 0.000564 | 0.000594 | 0.000637
in sec-butanol | 0.000347 | 0.000395 | 0.000452 | 0.000501 | 0.000554 | 0.000605 | 0.000661 | 0.000705 | 0.000757
in water | 0.00214 | 0.00233 | 0.00265 | 0.00297 | 0.00358 | 0.0043 | 0.00492 | 0.00587 | 0.00767
